Experimental data from patent US5308843A, “Method of inhibiting mammalian topoisomerase II and malignant cell growth in mammals, with substituted (S)-3-methyl-7-oxo-2,3-dihydro-7H-pyrido[1,2,3-de][1,4 ]-benzoxazine(and-benzothiazine)-6-carboxylic acids” (Sterling Drug Inc., priority 1990, dated 1994).

Assays:
human topoisomerase II = target: T1, human topoisomerase II (Homo sapiens, UniProt P11388); experiment: Mammalian (human) topoisomerase II inhibition assay: topo II-DNA complex stabilisation; format: biochemical; details: concentration with activity equal to the EC50 of reference mAMSA; 20 min at 37° C.
T1 construct: Topo II was purified from late log phase suspension cultures of HeLa WIS; endogenous in cells; host or cells: HeLa WIS (late log phase suspension cultures); native enzyme purified in house
T1 sequence (P11388 whole entry): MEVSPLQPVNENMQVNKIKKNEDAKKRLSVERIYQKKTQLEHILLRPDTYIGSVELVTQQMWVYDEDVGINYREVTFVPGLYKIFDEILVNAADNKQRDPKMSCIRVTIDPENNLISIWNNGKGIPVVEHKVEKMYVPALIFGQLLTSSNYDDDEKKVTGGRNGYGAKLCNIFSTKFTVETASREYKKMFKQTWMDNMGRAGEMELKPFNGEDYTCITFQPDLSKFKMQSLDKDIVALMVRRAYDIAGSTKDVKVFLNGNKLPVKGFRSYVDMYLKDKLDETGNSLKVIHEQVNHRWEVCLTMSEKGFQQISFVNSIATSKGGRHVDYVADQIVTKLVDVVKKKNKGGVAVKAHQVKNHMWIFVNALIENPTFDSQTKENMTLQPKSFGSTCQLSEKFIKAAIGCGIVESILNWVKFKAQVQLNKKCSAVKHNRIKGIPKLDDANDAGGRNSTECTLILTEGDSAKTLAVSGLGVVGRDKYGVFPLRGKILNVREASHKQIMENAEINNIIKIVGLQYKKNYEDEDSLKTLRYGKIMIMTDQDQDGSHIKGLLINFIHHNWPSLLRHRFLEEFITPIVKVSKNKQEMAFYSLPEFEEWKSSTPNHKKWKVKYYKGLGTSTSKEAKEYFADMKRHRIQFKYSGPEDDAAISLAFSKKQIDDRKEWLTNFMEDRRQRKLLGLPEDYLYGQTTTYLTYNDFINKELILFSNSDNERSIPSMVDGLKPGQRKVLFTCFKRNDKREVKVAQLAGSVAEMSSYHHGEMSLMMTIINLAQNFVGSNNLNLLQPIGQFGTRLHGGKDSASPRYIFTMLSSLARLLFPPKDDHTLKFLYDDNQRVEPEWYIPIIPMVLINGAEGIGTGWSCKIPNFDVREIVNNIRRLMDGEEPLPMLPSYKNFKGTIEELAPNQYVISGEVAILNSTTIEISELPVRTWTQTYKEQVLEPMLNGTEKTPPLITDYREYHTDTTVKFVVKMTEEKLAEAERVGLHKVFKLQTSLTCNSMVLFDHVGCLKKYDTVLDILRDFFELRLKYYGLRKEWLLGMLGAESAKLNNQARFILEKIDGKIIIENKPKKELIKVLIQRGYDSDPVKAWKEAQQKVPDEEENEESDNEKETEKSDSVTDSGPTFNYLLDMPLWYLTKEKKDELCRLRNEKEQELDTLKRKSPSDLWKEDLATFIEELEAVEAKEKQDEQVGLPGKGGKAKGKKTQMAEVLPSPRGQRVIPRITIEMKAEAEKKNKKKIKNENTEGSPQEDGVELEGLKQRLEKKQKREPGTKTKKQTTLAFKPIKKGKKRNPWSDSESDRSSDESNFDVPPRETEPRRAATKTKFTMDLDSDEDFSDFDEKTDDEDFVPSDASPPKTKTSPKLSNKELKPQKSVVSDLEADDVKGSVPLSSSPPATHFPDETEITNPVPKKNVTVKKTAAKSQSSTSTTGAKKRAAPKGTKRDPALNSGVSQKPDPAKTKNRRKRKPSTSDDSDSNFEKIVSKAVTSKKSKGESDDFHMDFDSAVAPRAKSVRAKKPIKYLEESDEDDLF
Description: Mammalian Topoisomerase II Inhibition Assay Procedure
The inhibition of human topoisomerase II (hereafter topo II) was quantitated by a procedure adapted from that described by Trask et al., EMBO J., 3, 671-676 (1984). The assay quantitates the amount of topo II covalently complexed by DNA at equilibrium during a topo II reaction. This assay determines the potential of a compound to stabilize this complex, which potential is closely related to the cytotoxicity of the compound.
Topo II was purified from late log phase suspension cultures of HeLa WIS by an adaption of the method described by Per et al., Mol. Pharmacol., 32, 17-25 (1987).
Assays (in duplicate) were assembled at 4° C. Assay mix (25 μl) was distributed in Beckman (No. 265270) 1.5 ml microtitre tubes followed by the addition of 5 μl test compound to yield the final concentrations of assay components:
4 ng 3' end labeled (32p) pBR322 DNA (10^7 DPM/μg)
The assay mix including the test compound was incubated for 20 minutes at 37° C. The reaction was terminated at 37° C. by the addition of 3 μl 10% SDS followed by the addition of 266 μl 10 mM Tris-Cl pH 7.5, 20 μg/ml BSA, 20 μg/ml calf thymus DNA, 1% SDS.
A SDS/protein precipitate was formed by the addition of 28 μl 2.5M KCl followed by chilling on ice for a minimum of 10 minutes. The precipitate was collected and washed with a Brandell cell harvester on a GFB glass fiber filter membrane as follows. The contents of the assay tube were drawn up into the harvester. The tube was then rinsed 7× with 10 mM Tris-Cl pH 7.5, 1 mM EDTA and 100 mM KCl. The precipitate was washed with 1 L of a solution of 10 mM Tris-Cl pH 7.5, 1 mM EDTA, 100 mM KCl followed by 1 L of 95% ethyl alcohol and finally 0.5 L 70% of ethyl alcohol (per 48 samples in each case). After drying, CPM was determined by liquid scintillation counting with 5 ml Biofluor (NEN Research Products) or Readisafe (Beckman Instruments Inc.) cocktail.
Preparation of test compound--A stock solution (6 mg/ml) of test compound was prepared either in 0.1N sodium hydroxide or 0.2N hydrogen chloride. This solution then was diluted 1/5 into water and serially thereafter in either 0.02N sodium hydroxide or 0.04N hydrogen chloride, respectively. The stock solution and serial dilution of the test compound was stored at -20° C. prior to testing.
Screening of test compound--As an initial screen, the test compound was tested at a final concentration of 2, 20 and 200 μg/ml.
Controls--A solvent control which indicates the base level of topo II-DNA complex formed in the absence of the test compound was included in each test. A control, in which topo II was omitted, was included for each test compound at the highest drug concentration tested.
Reference agent--A dose response curve with mAMSA at 0.01, 0.08, 0.16, 0.32, 1.0 and 10 μg/ml was included in each test.
Data reduction--The EC50 (effective concentration at which 50% of the maximal DNA-topo II complex is formed) of a test compound is defined to be the concentration with activity equal to the EC50 of the reference agent, mAMSA. The maximal DNA-topo II complex formed is taken as that equal to that formed at the nearly saturating dose of mAMSA (10 μg/ml).

[1] = In vivo antitumor assay, B16 melanoma (IP); set-up: species or system mice; details: mouse, in vivo; B16(IP) 0.5 ml 10% brie; drug IP; QD1,5,9; read-out: Maximum Tolerated Total Dose
Description: (§1) In vivo Antitumor Assay Procedure
(§2) Mice: Inbred: C3H/He; and Hybrids: B6D2F1 (C57BL/6 females×DBA/2 males), CD2F1 (Balb/c females×DBA/2 males) and B6C3F1 (C57BL/6×C3H) were bred at Wayne State University from strains obtained from the Frederick Cancer Research Facility, Frederick, Md. or from commercial suppliers.
(§3) Tumors: Murine Tumors: P388 leukemia and the following transplantable solid tumors of mice were used for in vivo testing: B16 melanoma, pancreatic ductal adenocarcinoma No. 03, colon adenocarcinoma No. 38 and mammary ductal adenocarcinoma No. 16/C. All tumors are in the Developmental Therapeutics Program frozen tumor repository, maintained by the Biological Testing Branch, Frederick, Md. Each has a detailed description, code identification number, and list of references at the National Tumor Repository. Tumors were maintained in the mouse strain of origin and were transplanted in the appropriate F1 hybrid (or the strain of origin) for therapy trials. The mice were supplied food and water ad libitum.
For P388 leukemia and B16 melanoma studies the tumor cells were implanted IP on day zero and treatment was started on day one (also IP). Titered controls were also included to facilitate the calculation of tumor cell kill.
End Points for Assessing Antitumor Activity: Quantitative end points used to assess antitumor activity included % Increased Life Span (% ILS), Tumor Cell Kill (Log10 kill), and Tumor Growth Inhibition (T/C). Long Term Survivors (45 or 60 day) were excluded from calculations of % ILS and Tumor Cell Kill.
Endpoints were calculated as follows: [formula] where Dt is the median day of death for treated and Dc is the median day of death for control groups.
The log10 cell kill was calculated from the following formula: [formula] where T-C is the tumor difference in the median day of death between the treated (T) and the control (C) groups and Td is the tumor doubling time (in days), the latter estimated from the best fit straight line from a log-linear growth plot of the control-group tumors in exponential growth. The conversion of the T-C values to log10 cell kill is possible because the Td for tumors regrowing post-treatment approximated the Td values of the tumors in untreated control mice.

several tumor systems = experiment: Antitumor activity in mice against several tumor systems (overall statement); format: in vivo
Description: as §1, §2
as §3, with “libitum. […]” for “libitum.”
End Points for Assessing Antitumor Activity: Quantitative end points used to assess antitumor activity included % Increased Life Span (% ILS), Tumor Cell Kill (Log10 kill), and Tumor Growth Inhibition (T/C). […]

[2] = Toxicity observations in mice of the in vivo antitumor trials
Description: Dose limiting toxicity appeared to be leukopenia, based on small spleen sizes in necropsy of mice dying at lethal dosage levels. […] Host recovery was rapid, with mice regaining their lost body weight within two to five days post nadir (at the highest non-toxic dosage levels).

Structure (SMILES): Cc1cc(-c2c(F)cc3c(=O)c(C(=O)O)cn4c3c2SC[C@@H]4C)cc(C)n1 [Example 5, (S)-10-(2,6-Dimethyl-4-pyridinyl)-9-fluoro-3-methyl-7-oxo-2,3-dihydro-7H-pyrido[1,2,3-de][1,4]benzothiazine-6-carboxylic acid]
- EC50 (human topoisomerase II): 9.4 µM
- MTD [1]: 1500 mg/kg
- antineoplastic activity (in words) (several tumor systems): found to possess antineoplastic activity as evidenced by its activity in reducing the size of and curing tumors, and increasing the survival time of the mice
- Dose limiting toxicity ([2]; based on small spleen sizes in necropsy of mice dying at lethal dosage levels): leukopenia
- host recovery (in words) ([2]; mouse, in vivo): rapid
- host recovery: time to regain lost body weight post nadir ([2]; mouse, in vivo): two to five
- tolerability ([2]; mouse, in vivo): well tolerated with no long delayed toxicity problems
